Patent US6355695B1, “Substituted heterocycles” (Zeneca Limited, priority 1995, dated 2002)
Structures can show the parent of a compound that is named as a salt.

Key:
[1] = target: T1, human NK2 receptor expressed in Mouse Erythroleukemia (MEL) cells (Homo sapiens, UniProt P21452); test: Neurokinin A (NKA) Receptor-binding Assay (Test A)
T1 construct: expressed in transfected cells; host or cells: Mouse Erythroleukemia (MEL) cells
T1 sequence (P21452 1-398): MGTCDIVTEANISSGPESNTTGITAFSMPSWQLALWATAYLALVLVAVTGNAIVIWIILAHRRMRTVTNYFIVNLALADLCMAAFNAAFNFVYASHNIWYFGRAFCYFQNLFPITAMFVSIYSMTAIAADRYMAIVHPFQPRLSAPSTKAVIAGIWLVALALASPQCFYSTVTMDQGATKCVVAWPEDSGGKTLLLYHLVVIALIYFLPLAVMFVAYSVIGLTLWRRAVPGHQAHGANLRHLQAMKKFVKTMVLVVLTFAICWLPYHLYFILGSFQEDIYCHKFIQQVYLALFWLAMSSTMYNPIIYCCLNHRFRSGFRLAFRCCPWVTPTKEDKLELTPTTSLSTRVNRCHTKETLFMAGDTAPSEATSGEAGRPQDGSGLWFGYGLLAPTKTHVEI
Description: Neurokinin A (NKA) Receptor-binding Assay (Test A)

guinea pig trachea = test: Guinea Pig Assay (Test B): functional assay in guinea pig trachea, antagonism of agonist NKA or [b-ala^8]-NKA(4-10); type: cell-based; details: Cavia porcellus, read-out: pKB in Test B (converted)
Description: Guinea Pig Assay (Test B)

SMILES	Ki [1] [nM]	Kb (guinea pig trachea) [nM]
OC1(c2ccccc2)CCN(CCC(Cn2ccnc2-c2ccccc2)c2ccc(Cl)c(Cl)c2)CC1 (centres unmarked) [Example 2, 1-[3-(3,4-Dichlorophenyl)-4-(2-phenylimidazol-1-yl)butyl]-4-hydroxy-4-phenylpiperidine dihydrochloride]	23	–
O=C1NCCCN1C1CCN(CCC(Cn2cnnc2-c2ccccc2)c2ccc(Cl)c(Cl)c2)CC1 (centres unmarked) [Example 3, 1-[1-[3-(3,4-Dichlorophenyl)-4-(2-phenyl-1,3,4-triazol-1-yl)butyl]piperidin-4-yl]tetrahydropyrimidin-2-one hydrochloride]	–	2
